Assay results published in patent US7390874B2 (Kuboyama Bio Ken, Inc., priority 2003, dated 2008).
Where two headings read alike, the source gives them in different places. Ends that are not written are not given here.

Columns and labels:
[1] = Body weight gains of rats in the adjuvant-induced arthritis study; assay type: in vivo, male Sprague-Dawley rats
Method: (§1) Rats weighting between 150-200 g were purchased from Animal Technologies Ltd., Kent, Wash. They were male Sprague-Dawley rats. The animals were kept individually in stainless steel cages with free access to water and feed (Harlan Teklan Rodent Diet). The light cycle was maintained at 12 hours light and 12 hours dark. The temperature was maintained at 22° C.±3° C. with a relative humidity of 40 to 70%.
The test materials were given orally (by gavage) to each of 5 rats per treatment group once per day for 10 days. Administration of the test materials was initiated on the day of sensitization.
(§2) The left hind paw was measured just before sensitization and again on Day 10. The plantar edema inhibitory rate and the body weight gain rate was determined by comparison with the non-sensitized rat groups.

[2] = mice
Method: One tenth (0.1 ml) of the above suspension is inoculated into the left hind leg muscle (hamstring muscle mass) of each mouse. The inoculated mice are placed into one large cage and then randomly segregated into groups of five mice. The mice are housed in shoe box cages on wood shavings with free access to water and laboratory chow. The mice are weighed on the day of inoculation, on day 7, day 12, at time of sacrifice.

[3] = tested on: Adjuvant Induced Arthritis in Rats; assay: Adjuvant-induced arthritis model in rats (paw weight, inhibition of inflammation); assay type: in vivo, male Sprague-Dawley rats
Method: Adjuvant-induced arthritis responds to both steroids and non-steroids. The degree of inflammation will be assessed by measuring differences in foot weight and/or the foot volume.
as §1
[…] The test compound and hydrocortisone were given by gavage.
Male Sprague-Dawley rats (150-200 g) were sensitized by injecting Fruend's complete adjuvant (0.5% suspension of killed mycobacterium tuberculosis (H37RA, Difco, in mineral oil)). A 0.1 ml aliquot was administered intradermally at a plantar site on the right hind leg of each rat.
The test materials were given orally (by gavage) to each of 5 rats per treatment group once per day for 10 days. […]
as §2
The paw weights for each group were averaged. Anti-inflammatory activity was determined by comparing paw weights calculated as follows: […]

Compound | Body Weight Gains of Rats ([1]; 1 mcg/kg by gavage once per day for 10 days) | Body Weight Gains of Rats ([1]; 10 mcg/kg by gavage once per day for 10 days) | weight loss (in words) ([1]; rats, 10 mcg/kg and 1 mcg/kg by gavage for 10 days) | Average Weight Gain ([2]; 1 mcg/kg dose by gavage for 11 days) | Average Weight Gain ([2]; 10 mcg/kg dose by gavage for 11 days) | weight gain associated with administration versus control (in words) ([2]; gavage for 11 days) | % Inhibition ([3]; 10 mg/kg by gavage once per day for 10 days, adjuvant-induced inflammation, rats) | Raw Paw Weight ([3]; rats sensitized with Freund's complete adjuvant, oral gavage once per day for 10 days, Day 10, dose for this column not stated) | Body Weight Gains of Rats ([1]; 10 mg/kg by gavage once per day for 10 days)
YGSRS [Peptide, tyrosine-glycine-serine-arginine-serine] | 40.1 | 39.4 | without inducing weight loss | 1.85 g | 1.87 g | comparable to the control |  |  | 
C[C@]12CCC(=O)C=C1CC[C@@H]1[C@@H]2[C@@H](O)C[C@@]2(C)[C@H]1CC[C@]2(O)C(=O)CO [Hydrocortisone] |  |  |  |  |  |  | 95.6% | 0.69 g | 22.2
